These results are taken from patent US11584742B2 (MASARYKOVA UNIVERZITA, priority 2018, dated 2023).

Assay [1] has as its system DR-GFP U2OS cells. The experiment in a line: HR assay (GFP fluorescence after I-SceI transfection, flow cytometry). It counts as cell-based. The settings on record: Homo sapiens, inhibitor at 25 μM, 72 hours after transfection. On the procedure: DR-GFP U2OS cells (Methods in Molecular Biology 2012, 920, 379.) were transfected with 2.5 μg of I-SceI-expressing pCAGGS vector and treated with the inhibitors at 25 μM concentration. 72 hours after the transfection, the cells were trypsinized and resuspended in 3% BSA in PBS. GFP fluorescence detection was carried out using a BD FACSVerse flow cytometer and data analyzed with FlowJo software.
(A flow cytometer gives signals particle by particle.)

In assay [2] the target is T1, MRE11 (Homo sapiens, UniProt P49959).
T1 sequence (P49959 1-708): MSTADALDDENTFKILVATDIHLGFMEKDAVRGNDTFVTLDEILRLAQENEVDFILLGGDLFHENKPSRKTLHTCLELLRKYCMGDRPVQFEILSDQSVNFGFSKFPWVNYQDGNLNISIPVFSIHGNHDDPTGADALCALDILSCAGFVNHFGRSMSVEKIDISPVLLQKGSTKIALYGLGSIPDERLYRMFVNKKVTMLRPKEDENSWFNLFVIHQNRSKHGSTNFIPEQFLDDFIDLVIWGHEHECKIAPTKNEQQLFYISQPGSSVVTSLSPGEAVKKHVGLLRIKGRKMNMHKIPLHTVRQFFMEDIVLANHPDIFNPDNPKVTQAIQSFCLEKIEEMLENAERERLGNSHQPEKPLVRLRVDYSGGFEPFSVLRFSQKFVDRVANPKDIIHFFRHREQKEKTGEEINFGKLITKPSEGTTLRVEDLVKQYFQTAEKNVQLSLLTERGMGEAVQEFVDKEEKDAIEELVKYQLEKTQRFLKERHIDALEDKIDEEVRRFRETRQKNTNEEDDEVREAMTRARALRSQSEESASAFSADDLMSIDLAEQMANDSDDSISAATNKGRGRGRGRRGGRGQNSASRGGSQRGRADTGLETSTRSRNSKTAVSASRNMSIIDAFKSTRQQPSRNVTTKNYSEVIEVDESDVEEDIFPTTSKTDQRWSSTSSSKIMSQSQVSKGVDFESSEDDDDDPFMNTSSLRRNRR
In words: HTS nuclease assay (cleavage of CY5/BBQ-quenched 5' overhang DNA substrate). It counts as biochemical. The settings on record: in vitro HTS nuclease assay; 18 nM MRE11, 40 nM DNA substrate; analysis at t=4 h.

A word on the inhibition: it is how much of the control response was suppressed. A low value points to a response near the control. The term IC50 denotes the concentration that gives 50% inhibition. In turn, `N#C/C(=C\c1ccc(O)c(O)c1)C(=O)Nc1nc(-c2cccc(Br)c2)cs1` [Preparative Example 169, (E)-N-(4-(3-bromophenyl)thiazol-2-yl)-2-cyano-3-(3,4-dihydroxyphenyl)acrylamide] returned an inhibition at 25 µM in assay [1] of over 75%. The compound further yielded an IC50 in assay [2] of under 2000 nM.
With `N#C/C(=C\c1ccc(O)c(O)c1)C(=O)Nc1nc(-c2cccc(OC(F)(F)F)c2)cs1` [Preparative Example 171, (E)-2-cyano-3-(3,4-dihydroxyphenyl)-N-(4-(3-(trifluoromethoxy)phenyl)thiazol-2-yl)acrylamide], in assay [1], the inhibition at 25 µM lay in the range of 50 to 75%. The compound further had a concentration for half-maximal inhibition (IC50) in assay [2] of 2000 to 10000 nM.
The corresponding values for `COc1ccc(-c2csc(NC(=O)/C(C#N)=C/c3ccc(O)c(O)c3)n2)cc1` [Preparative Example 162, (E)-2-cyano-3-(3,4-dihydroxyphenyl)-N-(4-(4-methoxyphenyl)thiazol-2-yl)acrylamide] are over 75% and under 2000 nM.
The matching figures for `N#C/C(=C\c1ccccc1F)C(=O)Nc1nc(-c2ccccc2)cs1` [Preparative Example 206, (E)-2-cyano-3-(2-fluorophenyl)-N-(4-phenylthiazol-2-yl)acrylamide]: under 50% and 2000 to 10000 nM.
The matching figures for `COc1ccc(-c2csc(NC(=O)/C(C#N)=C/c3ccc(O)c(O)c3)n2)cc1C1CC1` [Preparative Example 198, (E)-2-cyano-N-(4-(3-cyclopropyl-4-methoxyphenyl)thiazol-2-yl)-3-(3,4-dihydroxyphenyl)acrylamide]: over 75% and under 2000 nM.
In assay [1], `N#C/C(=C\c1cccc(C(F)(F)F)c1)C(=O)Nc1nc(-c2ccccc2)cs1` [Preparative Example 231, (E)-2-cyano-N-(4-phenylthiazol-2-yl)-3-(3-(trifluoromethyl)phenyl)acrylamide] yielded an inhibition at 25 µM of under 50%. Besides, the IC50 in assay [2] was in the range of 2000 to 10000 nM.
The matching figures for `CC(C)(O)c1ccc(-c2csc(NC(=O)/C(C#N)=C/c3ccc(O)c(O)c3)n2)cc1` [Preparative Example 182, (E)-2-cyano-3-(3,4-dihydroxyphenyl)-N-(4-(4-(2-hydroxypropan-2-yl)phenyl)thiazol-2-yl)acrylamide]: 50 to 75% and under 2000 nM.
`N#C/C(=C\c1ccc(O)c(Cl)c1)C(=O)Nc1nc(-c2ccccc2)cs1` [Preparative Example 201, (E)-3-(3-chloro-4-hydroxyphenyl)-2-cyano-N-(4-phenylthiazol-2-yl)acrylamide]: the inhibition at 25 µM in assay [1] lay within 50 to 75%. Besides, in assay [2], the IC50 lay in the range of 2000 to 10000 nM.
The corresponding values for `N#C/C(=C\c1ccc2cn[nH]c2c1)C(=O)Nc1nc(-c2ccccc2)cs1` [Preparative Example 205, (E)-2-cyano-3-(1H-indazol-6-yl)-N-(4-phenylthiazol-2-yl)acrylamide] are under 50% and 2000 to 10000 nM.
Take `N#C/C(=C\c1ccc([N+](=O)[O-])cc1)C(=O)Nc1nc(-c2ccccc2)cs1` [Preparative Example 209, (E)-2-cyano-3-(4-nitrophenyl)-N-(4-phenylthiazol-2-yl)acrylamide]: the inhibition at 25 µM in assay [1] was 50 to 75%. The same compound yielded an IC50 in assay [2] of 10000 to 90000 nM.
The matching figures for `Cc1cccnc1-c1csc(NC(=O)/C(C#N)=C/c2ccc(O)c(O)c2)n1` [Preparative Example 239, (E)-2-cyano-3-(3,4-dihydroxyphenyl)-N-(4-(3-methylpyridin-2-yl)thiazol-2-yl)acrylamide]: over 75% and under 2000 nM.
The compound `CC(=O)Nc1ccc(/C=C(\C#N)C(=O)Nc2nc(-c3ccccc3)cs2)cc1O` [Preparative Example 223, (E)-3-(4-acetamido-3-hydroxyphenyl)-2-cyano-N-(4-phenylthiazol-2-yl)acrylamide] came in with an inhibition at 25 µM in assay [1] of under 50%. The IC50 in assay [2] was 10000 to 90000 nM.
The corresponding values for `N#C/C(=C\c1ccc(O)c(O)c1)C(=O)Nc1nc(-c2cccc(F)c2)cs1` [Preparative Example 236, (E)-2-cyano-3-(3,4-dihydroxyphenyl)-N-(4-(3-fluorophenyl)thiazol-2-yl)acrylamide] are 50 to 75% and under 2000 nM.
Regarding `COc1cc(/C=C(\C#N)C(=O)Nc2nc(-c3ccccc3)cs2)cc(F)c1O` [Preparative Example 203, (E)-2-cyano-3-(3-fluoro-4-hydroxy-5-methoxyphenyl)-N-(4-phenylthiazol-2-yl)acrylamide], the inhibition at 25 µM in assay [1] is under 50%. In assay [2], this compound returned an IC50 of 2000 to 10000 nM.
The matching figures for `N#CC(=Cc1c[nH]cn1)C(=O)Nc1nc(-c2ccccc2)cs1` (racemic) [Preparative Example 214, (E)- and (Z)-2-cyano-3-(1H-imidazol-4-yl)-N-(4-phenylthiazol-2-yl)acrylamide]: under 50% and 10000 to 90000 nM.
As for `N#C/C(=C\c1cc(Cl)c(O)c(Cl)c1)C(=O)Nc1nc(-c2ccc(Br)cc2)cs1` [Preparative Example 165, (E)-N-(4-(4-bromophenyl)thiazol-2-yl)-2-cyano-3-(3,5-dichloro-4-hydroxyphenyl)acrylamide], in assay [1], the inhibition at 25 µM fell in the range of 50 to 75%. This compound showed an IC50 in assay [2] of under 2000 nM.
`Cc1cc(C(C)(C)C)cc(C)c1-c1csc(NC(=O)/C(C#N)=C/c2ccc(O)c(O)c2)n1` [Preparative Example 246, (E)-N-(4-(4-(tert-butyl)-2,6-dimethylphenyl)thiazol-2-yl)-2-cyano-3-(3,4-dihydroxyphenyl)acrylamide] displayed an inhibition at 25 µM in assay [1] of over 75%. This compound also displayed an IC50 in assay [2] of under 2000 nM.
The compound `N#C/C(=C\c1ccc2c(c1)OCC(=O)N2)C(=O)Nc1nc(-c2ccccc2)cs1` [Preparative Example 220, (E)-2-cyano-3-(3-oxo-3,4-dihydro-2H-benzo[b][1,4]oxazin-7-yl)-N-(4-phenylthiazol-2-yl)acrylamide] gave an inhibition at 25 µM in assay [1] of 50 to 75%. In assay [2], this compound returned an IC50 of 10000 to 90000 nM.
Compound `N#C/C(=C\c1ccc(O)c(O)c1)C(=O)Nc1nc(-c2ccc(N3CCOCC3)cc2)cs1` [Preparative Example 178] displayed an inhibition at 25 µM in assay [1] of 50 to 75%. The IC50 in assay [2] was under 2000 nM.
The corresponding values for `COC(=O)c1ccc(-c2csc(NC(=O)/C(C#N)=C/c3ccc(O)c(O)c3)n2)cc1` [Preparative Example 189, Methyl (E)-4-(2-(2-cyano-3-(3,4-dihydroxyphenyl)acrylamido)thiazol-4-yl)benzoate] are 50 to 75% and under 2000 nM.
The compound `COc1ccc(-c2csc(NC(=O)/C(C#N)=C/c3ccc(O)c(O)c3)n2)cc1O` [Preparative Example 166, (E)-2-cyano-3-(3,4-dihydroxyphenyl)-N-(4-(3-hydroxy-4-methoxyphenyl)thiazol-2-yl)acrylamide] gave an inhibition at 25 µM in assay [1] of over 75%. In assay [2], this compound displayed an IC50 of under 2000 nM.
`N#C/C(=C\c1ccc(O)c(O)c1)C(=O)Nc1nc2c(s1)CCCC2` [Preparative Example 191]: the inhibition at 25 µM in assay [1] was under 50%. In assay [2], this compound had an IC50 of under 2000 nM.
The compound `N#C/C(=C\c1ccc(O)c(O)c1)C(=O)Nc1nc(-c2ccccc2Br)cs1` [Preparative Example 170, (E)-N-(4-(2-bromophenyl)thiazol-2-yl)-2-cyano-3-(3,4-dihydroxyphenyl)acrylamide] had an inhibition at 25 µM in assay [1] of 50 to 75%. This compound also gave an IC50 in assay [2] of under 2000 nM.
Turning to `N#C/C(=C\c1ccc(O)c(O)c1)C(=O)Nc1nc(-c2ccccc2)c(-c2cnccn2)s1` [Preparative Example 238, (E)-2-cyano-3-(3,4-dihydroxyphenyl)-N-(4-phenyl-5-(pyrazin-2-yl)thiazol-2-yl)acrylamide], the inhibition at 25 µM in assay [1] fell in the range of 50 to 75%. The IC50 in assay [2] was under 2000 nM.
Compound `Cc1sc(NC(=O)/C(C#N)=C/c2ccc(O)c(O)c2)nc1-c1ccccc1` [Preparative Example 194, (E)-2-cyano-3-(3,4-dihydroxyphenyl)-N-(5-methyl-4-phenylthiazol-2-yl)acrylamide] gave an inhibition at 25 µM in assay [1] of 50 to 75%. In assay [2], this compound yielded an IC50 of under 2000 nM.
`Cc1ccc(-c2csc(NC(=O)/C(C#N)=C/c3ccc(O)c(O)c3)n2)s1` [Preparative Example 229, (E)-2-cyano-3-(3,4-dihydroxyphenyl)-N-(4-(5-methylthiophen-2-yl)thiazol-2-yl)acrylamide]: the inhibition at 25 µM in assay [1] lay in the range of 50 to 75%. The IC50 in assay [2] was under 2000 nM.
The corresponding values for `C#Cc1ccc(-c2csc(NC(=O)/C(C#N)=C/c3ccc(O)c(O)c3)n2)cc1` [Preparative Example 197, (E)-2-cyano-3-(3,4-dihydroxyphenyl)-N-(4-(4-ethynylphenyl)thiazol-2-yl)acrylamide] are over 75% and under 2000 nM.
